Test system: adult male CD1 mice, ischemia-reperfusion
Details: mouse, in vivo

With “AAT: plasma-derived alpha-1 antitrypsin (Aralast NP, Baxter)” the “Infarct size when given with the LRP1 blocking antibody” value was “significant increase in infarct size”.

— publication PMC6058925 (JACC: Basic to Translational Science, 2017)
